# Assay results taken from the PolyMetriX glass transition set.
# ± gives the standard deviation of the reports.
row,SMILES,glass transition temperature [°C]
1,*CC* (repeat unit) [Poly(ethylene)],-54.00 ± 89
2,*Oc1ccc(/N=C/CCC/C=N/c2ccc(OC(=O)NC3CC(C)(C)CC(C)(CNC(*)=O)C3)cc2)cc1 (repeat unit),66.00
3,*c1ccc(C(C#N)(C(=O)OCC(C)C)C(*)(C#N)C(=O)OCC(C)C)cc1 (repeat unit),108.00
4,*CCCOCCCCOCCCN1C(=O)c2ccc(C(=O)Oc3ccc4cc(OC(=O)c5ccc6c(c5)C(=O)N(*)C6=O)ccc4c3)cc2C1=O (repeat unit),68.00
5,*Oc1ccc2c(c1)C1(CC2(C)C)CC(C)(C)c2ccc(OC(=O)c3cccc(C(*)=O)c3)cc21 (repeat unit),245.00
6,*c1ccc2c(c1)Sc1cc(-c3sc4cc(*)sc4c3CCCCC)ccc1N2CCCCCCCCCC (repeat unit),131.00
7,*CC(*)c1cc(Br)ccc1OCCCCC (repeat unit),49.00
8,*c1cc(CCCCCCCCCC)c(*)s1 (repeat unit),-30.00 ± 4.2
9,*CCOCCOC(=O)c1ccccc1C(=O)O* (repeat unit),-50.00
10,*CCCCCOC(=O)Nc1ccc(Cc2ccc(NC(=O)O*)cc2)cc1 (repeat unit),95.00
11,*CC(OCCCC)C(C(=O)OC)C(*)C(=O)OC (repeat unit),32.50
12,*CCCP(C)(=O)CCCNC(=O)CCCCC(=O)N* (repeat unit),33.00
13,*CCCCCOC(=O)NNC(=O)CCCCCCCCC(=O)NNC(=O)O* (repeat unit),20.00
14,*c1c(C)cc(C)c(N2C(=O)c3ccc(-c4ccc5c(c4)C(=O)N(*)C5=O)cc3C2=O)c1C (repeat unit),385.00
15,*OC1CCCCC1* (repeat unit),68.50
16,*CC(F)(F)C(F)(F)C(F)(F)C(F)(F)COC(=O)NCCCCCCNC(=O)O* (repeat unit),-2.00
17,*O[Si](*)(CCCOCCOCCOCCOC)CCCOCCOCCOCCOC (repeat unit),-69.20
18,*OC(CCl)COC(=O)C1=C(C(=O)OCC(CCl)OC(=O)c2ccc(C(*)=O)cc2)C2C=CC1C2 (repeat unit),72.00
19,*Oc1ccc(CC(NC(=O)CCc2ccc(OC(=O)CCCCCCC(*)=O)cc2)C(=O)OCCCCCCCC)cc1 (repeat unit),22.00
20,*CCCCNC(=O)c1ccc(C(=O)N*)c(Oc2ccccc2)c1 (repeat unit),125.00
21,*CCCCCCCOC(=O)Nc1ccc(C)c(NC(=O)O*)c1 (repeat unit),61.00

row,SMILES,glass transition temperature [°C]
1,*CCCCCOC(=O)CCCCCCCCCCN1C(=O)c2ccc(-c3ccc(-c4ccc5c(c4)C(=O)N(CCCCCCCCCCC(=O)OCCCCCN4C(=O)c6ccc(-c7ccc8c(c7)C(=O)N(*)C8=O)cc6C4=O)C5=O)cc3)cc2C1=O (repeat unit),41.00
2,*CCCCCOC(=O)O* (repeat unit),-42.9
3,*CC(*)(C)C(=O)OCCCCCCCCCCOc1ccc(/N=N/c2ccc(OC)cc2)cc1 (repeat unit),62.00
4,*/C=C/C1CC(*)C(C#N)(CCC)C1 (repeat unit),108.00
5,*CCCCCCCCCCNC(=O)CCCCCCCCC(=O)N* (repeat unit),60.00
6,*Nc1ccc(C(c2ccc(NC(=O)c3cc(NC(=O)C45CC6CC(CC(C6)C4)C5)cc(C(*)=O)c3)cc2)(C(F)(F)F)C(F)(F)F)cc1 (repeat unit),365.00
7,*Oc1ccc2c(c1)C1(CC2(C)C)CC(C)(C)c2ccc(OC(=O)c3ccc(C(*)=O)cc3)cc21 (repeat unit),290.00
8,*c1cccc(P(=O)(c2ccccc2)c2cccc(-n3c(=O)c4c(-c5ccc(C(F)(F)F)cc5)c5c(=O)n(*)c(=O)c5c(-c5ccc(C(F)(F)F)cc5)c4c3=O)c2)c1 (repeat unit),334.00
9,*CC(*)c1cccc(Cl)c1 (repeat unit),90.00
10,*CC(*)c1cccc(F)c1 (repeat unit),86.00
11,*CC(*)C(=O)Oc1ccc(Cl)cc1Cl (repeat unit),60.00
12,*c1ccc(-c2nnc(*)o2)c(OCCCCCCCCCC)c1 (repeat unit),165.00
13,*c1cccc(NC(=O)CCCCCCC(=O)Nc2cccc(S(*)(=O)=O)c2)c1 (repeat unit),125.00
14,*CC(*)(C)C(=O)NC1C(O)OC(CO)C(O)C1O (repeat unit),90.50
15,*CC(*)(F)C(=O)OCCC(F)(F)C(F)(F)C(F)(F)C(F)(F)C(F)(F)C(F)(F)C(F)(F)C(F)(F)C(F)(F)C(F)(F)F (repeat unit),53.00
16,*CCCCOC(=O)COCC(=O)O* (repeat unit),-23.00
17,*CC(*)C(=O)Oc1ccc(/N=N/c2ccc([N+](=O)[O-])cc2)cc1 (repeat unit),134.00
18,*O[Si](*)(C)CC[Si](C)(C)O[Si](C)(C)CCCOc1cc(OC(=O)c2ccc(OCCCC)cc2)ccc1/N=N/c1ccc(OCCCC)cc1 (repeat unit),-4.00
19,*CCCCCCOC(=O)C(CCCCCCCCCCBr)C(=O)OCCCCCCOc1ccc(-n2on2-c2ccc(O*)cc2)cc1 (repeat unit),16.00
20,*Oc1ccc(CC(NC(=O)CCc2ccc(OC(=O)COCCOCC(*)=O)cc2)C(=O)OC(C)CC)cc1 (repeat unit),44.00
21,*CC(*)(CC(=O)OCCOCCOCCOCCOCCOCCOCCOC)C(=O)OCCOCCOCCOCCOCCOCCOCCOC (repeat unit),-40.50

# The next lines start with the values.
row,glass transition temperature [°C],SMILES
1,200.00,*Oc1ccc(Oc2ccc(NC(=O)c3ccc(Oc4ccc(Oc5ccc(C(=O)Nc6ccc(*)cc6)cc5)cc4C)cc3)cc2)cc1 (repeat unit)
2,282.50,*C(=O)c1ccc2c(c1)C(=O)N(c1ccc(Oc3ccccc3N3C(=O)c4ccc(*)cc4C3=O)cc1)C2=O (repeat unit)
3,260.00,*c1cccc(NC(=O)c2ccc(-c3ccc(C(=O)Nc4cccc(S(*)(=O)=O)c4)c(C)c3)cc2C)c1 (repeat unit)
4,160.00,*CCOC(=O)Nc1ccc(C)c(NC(=O)OCCOc2cc([N+](=O)[O-])ccc2/N=N/c2cn(*)c3ccc(-c4ccc5c(c4)c4ccccc4n5CCCC)cc23)c1 (repeat unit)
5,298.00,*c1ccc(Oc2ccc(-c3cccc(-c4ccc(Oc5ccc(-c6c7c(c(*)c8ccccc68)C(=O)N(c6ccccc6)C7=O)cc5)c(C(F)(F)F)c4)n3)cc2C(F)(F)F)cc1 (repeat unit)
6,280.50,*c1ccc(Oc2ccc(S(=O)(=O)c3ccc(Oc4ccc(-c5c6c(c(*)c7ccccc57)C(=O)N(c5cccc(C(F)(F)F)c5)C6=O)cc4)cc3)cc2)cc1 (repeat unit)
7,180.00,*Oc1ccc(S(=O)(=O)c2ccc(Oc3ccc(C(C)(C)c4ccc(*)c(C)c4)cc3C)cc2)cc1 (repeat unit)
8,370.00,*c1ccc(-c2c(-c3ccccc3)nc3ccc(-c4ccc5nc(-c6ccccc6)c(*)c(-c6ccccc6)c5c4)cc3c2-c2ccccc2)cc1 (repeat unit)
9,312.00,*C(=O)Nc1cccc(NC(=O)c2ccc3[nH]c(-c4cc(-c5nc6cc(*)ccc6[nH]5)cc(N5C(=O)c6ccccc6C5=O)c4)nc3c2)n1 (repeat unit)
10,112.00,*CC(*)(C)C(=O)OC(COc1cc2ccccc2c2ccccc12)COc1cc2ccccc2c2ccccc12 (repeat unit)
11,235.00,*c1ccc(Oc2ccc(S(=O)(=O)c3ccc(Oc4ccc(-c5cc(*)n(-c6ccccc6)n5)cc4)cc3)cc2)cc1 (repeat unit)
12,422.00,*c1ccc(S(=O)(=O)c2ccc(-n3nc(-c4ccccc4)c4ccc(S(=O)(=O)c5ccc6c(-c7ccccc7)nn(*)c(=O)c6c5)cc4c3=O)cc2)cc1 (repeat unit)
13,260.00,*Oc1ccc(S(=O)(=O)c2ccc(Oc3ccc(NC(=O)c4cccc(C(=O)Nc5ccc(*)cc5)c4)cc3)cc2)cc1 (repeat unit)
14,279.50,*C(=O)Nc1ccc(Cc2ccc(N3C(=O)c4ccc(*)cc4C3=O)cc2)cc1 (repeat unit)
15,260.00,*c1ccc(-c2nc(-c3cccc(-c4nnc(-c5ccccc5)c(*)n4)n3)nnc2-c2ccccc2)cc1 (repeat unit)
16,186.00,*c1ccc(Oc2ccc(Sc3ccc(Oc4ccc(N5C(=O)c6ccc(Oc7ccc(Sc8ccc(Oc9ccc%10c(c9)C(=O)N(*)C%10=O)cc8)cc7)cc6C5=O)cc4)cc3)cc2)cc1 (repeat unit)
17,249.00,*Oc1ccc(C(=O)Nc2ccc(Br)cc2-c2ccc(NC(=O)c3ccc(*)cc3)cc2)cc1 (repeat unit)
18,395.00,*c1ccc(-c2nc3cc4nc(*)c(-c5ccccc5)nc4cc3nc2-c2ccccc2)cc1 (repeat unit)
19,218.00,*Oc1ccc(C(c2ccc(Oc3ccc(C(=O)Nc4ccc(NC(=O)c5ccc(*)cc5)cc4)cc3)cc2)(C(F)(F)F)C(F)(F)F)cc1 (repeat unit)
20,250.00,*c1ccc2c(c1)C(=O)N(c1cccc(C(=O)Nc3ccc(C(c4ccc(NC(=O)c5cccc(N6C(=O)c7ccc(C(*)(C(F)(F)F)C(F)(F)F)cc7C6=O)c5C)cc4)(C(F)(F)F)C(F)(F)F)cc3)c1C)C2=O (repeat unit)
21,157.00,*c1ccc(Oc2ccc(Oc3ccc(N4C(=O)CC(=O)N(*)C4=S)cc3)cc2)cc1 (repeat unit)
22,362.00,*C(=O)c1ccc2c(c1)C(=O)N(c1ccc(-c3cc(C(C)(C)C)c(Oc4ccc(N5C(=O)c6ccc(*)cc6C5=O)cc4C(F)(F)F)c(C(C)(C)C)c3)cc1)C2=O (repeat unit)
23,144.00,*Oc1ccc(C2(c3ccc(Oc4ccc(C(=O)Oc5ccc(C(C)(C)c6ccc(OC(=O)c7ccc(*)cc7)cc6)cc5)cc4)cc3)CCC(C(C)(C)C)CC2)cc1 (repeat unit)
24,35.00,*c1ccc(OCCCCCCCCCCCOC(=O)c2ccc(C(=O)OCCCCCCCCCCCOc3cccc(-c4nnc(*)s4)c3)cc2)cc1 (repeat unit)
